In brackets after ≈: the same amount, converted by molar mass. Residues, ends and D or L forms follow the SMILES beside them.
Key:
Format in all cases: cell-based
E. faecium 1042 = test system: E. faecium 1042
Procedure: (§1) Standard strains included S. aureus ATCC33592, S. aureus CICC25138, and Salmonella enterica ATCC14028, which were purchased from the China Center of Industrial Culture Collection (CICC). Standard strains including E.coli CMCC44102, Salmonella enterica CMCC50071, and S. aureus CMCC26003 were purchased from the National Center for Medical Culture Collections (CMCC). […] All experiments using the above strains were carried out in a BSL‐2 laboratory. The clinical laboratory of Qilu Hospital detected bacterial resistance to various antibiotics. All strains were streaked on Nutrient Broth (NB) agar medium and incubated overnight at 37°C.
(§2) The antimicrobial activity of the peptides was examined in sterile 96‐well plates using the broth microdilution according to the CLSI standard. The colonies were suspended in saline solution, the turbidity was adjusted to McFarland 0.5 to reach a bacterial concentration of 10^8 CFU/mL, and again diluted 100 times for the inhibition test. Then, 50 µL of bacterial suspension at 1 × 10^6 CFU/mL was incubated with the same volume of different concentrations of peptide solution [serial twofold dilutions in Mueller–Hinton Broth (Hopebio)]. […] All experiments were performed with three independent replicates.

E. faecium 21 = test system: E. faecium 21
Procedure: as §1, §2

E.coli 110 = test system: E.coli 110
Procedure: as §1, §2

E.coli 208 = test system: E.coli 208
Procedure: as §1, §2

K. pneumoniae 7713 = test system: K. pneumoniae 7713
Procedure: as §1, §2

P. aeruginosa 112 = test system: P. aeruginosa 112
Procedure: as §1, §2

P. aeruginosa 116 = test system: P. aeruginosa 116
Procedure: as §1, §2

P. aeruginosa 119 = test system: P. aeruginosa 119
Procedure: as §1, §2

S. aureus 103 = test system: S. aureus 103
Procedure: as §1, §2

S. aureus 129 = test system: S. aureus 129
Procedure: as §1, §2

S. aureus ATCC33592 = test system: S. aureus ATCC33592
Procedure: as §1, §2

S. aureus CICC25138 = test system: S. aureus CICC25138
Procedure: as §1, §2

E.coli CMCC44102 = test system: E.coli CMCC44102
Procedure: as §1, §2

S. aureus CMCC26003 = test system: S. aureus CMCC26003
Procedure: as §1, §2

SMILES | MIC (μg/mL) E. faecium 1042 (E. faecium 1042) [µg/mL] | MIC (μg/mL) E. faecium 21 (E. faecium 21) [µg/mL] | MIC (μg/mL) E.coli 110 (E.coli 110) [µg/mL] | MIC (μg/mL) E.coli 208 (E.coli 208) [µg/mL] | MIC (μg/mL) K. pneumoniae 7713 (K. pneumoniae 7713) [µg/mL] | MIC (μg/mL) P. aeruginosa 112 (P. aeruginosa 112) [µg/mL] | MIC (μg/mL) P. aeruginosa 116 (P. aeruginosa 116) [µg/mL] | MIC (μg/mL) P. aeruginosa 119 (P. aeruginosa 119) [µg/mL] | MIC (μg/mL) S. aureus 103 (S. aureus 103) [µg/mL] | MIC (μg/mL) S. aureus 129 (S. aureus 129) [µg/mL] | MIC (μg/mL) S. aureus ATCC33592 (S. aureus ATCC33592) [µg/mL] | MIC (μg/mL) S. aureus CICC25138 (S. aureus CICC25138) [µg/mL] | MIC (μg/mL) E.coli CMCC44102 (E.coli CMCC44102) [µg/mL] | MIC (μg/mL) S. aureus CMCC26003 (S. aureus CMCC26003) [µg/mL]
CC[C@H](C)[C@H](NC(=O)[C@H](CCCCN)NC(=O)[C@H](Cc1c[nH]c2ccccc12)NC(=O)[C@@H](N)CCCCN)C(=O)N[C@@H](CCCCN)C(=O)N[C@@H](CCC(N)=O)C(=O)N[C@@H](Cc1c[nH]c2ccccc12)C(=O)N[C@H](C(=O)N[C@@H](CCCNC(=N)N)C(=O)N[C@@H](Cc1c[nH]c2ccccc12)C(=O)N[C@@H](Cc1ccccc1)C(=O)N[C@@H](CCCNC(=N)N)C(=O)N[C@@H](CCCCN)C(=O)N[C@@H](CC(C)C)C(N)=O)C(C)C [QLX-3DV-6] (H-KWKIKQWVRWFRKL-NH2) | 8 (≈ 4 µM) | 8 (≈ 4 µM) | 8 (≈ 4 µM) | 4 (≈ 2 µM) | 16 (≈ 7.99 µM) | 32 (≈ 16 µM) | 16 (≈ 7.99 µM) | 128 (≈ 64 µM) | 16 (≈ 7.99 µM) | 16 (≈ 7.99 µM) | 16 (≈ 7.99 µM) | 16 (≈ 7.99 µM) | – | –
CC[C@H](C)[C@H](NC(=O)[C@H](CCCCN)NC(=O)[C@H](CCCNC(=N)N)NC(=O)[C@@H](N)CCCCN)C(=O)N[C@@H](CCCCN)C(=O)N[C@@H](Cc1c[nH]c2ccccc12)C(=O)N[C@@H](CCCCN)C(=O)N[C@H](C(=O)N[C@@H](CCCNC(=N)N)C(=O)N[C@@H](Cc1c[nH]c2ccccc12)C(=O)N[C@@H](Cc1ccccc1)C(=O)N[C@H](C(=O)N[C@@H](Cc1ccc(O)cc1)C(=O)N[C@@H](CC(C)C)C(N)=O)[C@@H](C)O)C(C)C [QLX-3DV-7] (H-KRKIKWKVRWFTYL-NH2) | 8 (≈ 4.1 µM) | 8 (≈ 4.1 µM) | 16 (≈ 8.2 µM) | 32 (≈ 16.4 µM) | 16 (≈ 8.2 µM) | 32 (≈ 16.4 µM) | 8 (≈ 4.1 µM) | 64 (≈ 32.8 µM) | 16 (≈ 8.2 µM) | 16 (≈ 8.2 µM) | 16 (≈ 8.2 µM) | 16 (≈ 8.2 µM) | – | –
CC[C@H](C)[C@H](NC(=O)[C@H](CCCCN)NC(=O)[C@H](Cc1c[nH]c2ccccc12)NC(=O)[C@@H](N)CCCCN)C(=O)N[C@@H](CCCCN)C(=O)N[C@@H](Cc1c[nH]c2ccccc12)C(=O)N[C@@H](CCCNC(=N)N)C(=O)N[C@H](C(=O)N[C@@H](CCCNC(=N)N)C(=O)N[C@@H](Cc1c[nH]c2ccccc12)C(=O)N[C@@H](Cc1ccccc1)C(=O)N[C@@H](CCCCN)C(=O)N[C@@H](CC(C)C)C(=O)N[C@@H](CC(C)C)C(N)=O)C(C)C [QLX-3DV-9] (H-KWKIKWRVRWFKLL-NH2) | 2 (≈ 1.01 µM) | 2 (≈ 1.01 µM) | 8 (≈ 4.03 µM) | 16 (≈ 8.05 µM) | 16 (≈ 8.05 µM) | 16 (≈ 8.05 µM) | 4 (≈ 2.01 µM) | 16 (≈ 8.05 µM) | 8 (≈ 4.03 µM) | 8 (≈ 4.03 µM) | 16 (≈ 8.05 µM) | 8 (≈ 4.03 µM) | – | –
CC[C@H](C)[C@H](NC(=O)[C@H](CCCCN)NC(=O)[C@H](Cc1c[nH]c2ccccc12)NC(=O)[C@@H](N)CCCCN)C(=O)N[C@@H](CCCCN)C(=O)N[C@@H](Cc1c[nH]c2ccccc12)C(=O)N[C@@H](Cc1c[nH]cn1)C(=O)N[C@H](C(=O)N[C@@H](CCCNC(=N)N)C(=O)N[C@@H](Cc1c[nH]c2ccccc12)C(=O)N[C@@H](Cc1ccccc1)C(=O)N[C@@H](CCCNC(=N)N)C(=O)N[C@H](C(=O)N[C@@H](CC(C)C)C(N)=O)C(C)C)C(C)C [QLX-3DV-10] (H-KWKIKWHVRWFRVL-NH2) | 8 (≈ 4.04 µM) | 8 (≈ 4.04 µM) | 32 (≈ 16.1 µM) | 32 (≈ 16.1 µM) | 16 (≈ 8.07 µM) | 32 (≈ 16.1 µM) | 8 (≈ 4.04 µM) | 64 (≈ 32.3 µM) | 8 (≈ 4.04 µM) | 16 (≈ 8.07 µM) | 16 (≈ 8.07 µM) | 32 (≈ 16.1 µM) | – | –
CC(C)C[C@H](NC(=O)[C@H](Cc1ccccc1)NC(=O)[C@H](CCCCN)NC(=O)[C@H](Cc1c[nH]c2ccccc12)NC(=O)[C@H](Cc1c[nH]c2ccccc12)NC(=O)[C@@H]1CCCN1C(=O)[C@H](CCCNC(=N)N)NC(=O)[C@@H](NC(=O)[C@H](Cc1ccccc1)NC(=O)[C@H](CCCCN)NC(=O)[C@H](CCCNC(=N)N)NC(=O)[C@H](Cc1c[nH]c2ccccc12)NC(=O)[C@H](CCCNC(=N)N)NC(=O)[C@H](CCCCN)NC(=O)[C@H](Cc1ccc(O)cc1)NC(=O)[C@H](CCC(N)=O)NC(=O)[C@@H](N)CCCNC(=N)N)C(C)C)C(=O)N[C@@H](CCCCN)C(=O)N[C@@H](CC(=O)O)C(N)=O [QLX-3DV-14] (H-RQYKRWRKFVRPWWKFLKD-NH2) | – | 8 (≈ 2.94 µM) | 8 (≈ 2.94 µM) | 16 (≈ 5.88 µM) | – | 4 (≈ 1.47 µM) | 32 (≈ 11.8 µM) | 128 (≈ 47 µM) | 8 (≈ 2.94 µM) | 16 (≈ 5.88 µM) | 8 (≈ 2.94 µM) | 32 (≈ 11.8 µM) | 4 (≈ 1.47 µM) | 8 (≈ 2.94 µM)
CC[C@H](C)[C@H](NC(=O)[C@H](CC(C)C)NC(=O)[C@@H](NC(=O)[C@H](C)NC(=O)[C@@H](N)CC(C)C)C(C)C)C(=O)N[C@@H](Cc1ccccc1)C(=O)N[C@H](C(=O)N[C@@H](CCCNC(=N)N)C(=O)N[C@@H](CCCNC(=N)N)C(=O)N[C@@H](CCCCN)C(=O)N[C@@H](CCC(N)=O)C(=O)N[C@@H](CC(C)C)C(N)=O)C(C)C [QLX-3DV-17] (H-LAVLIFVRRKQL-NH2) | 8 (≈ 5.5 µM) | 16 (≈ 11 µM) | 32 (≈ 22 µM) | 16 (≈ 11 µM) | – | – | – | 64 (≈ 44 µM) | 32 (≈ 22 µM) | 16 (≈ 11 µM) | 64 (≈ 44 µM) | 32 (≈ 22 µM) | 8 (≈ 5.5 µM) | 4 (≈ 2.75 µM)
CC[C@H](C)[C@H](NC(=O)[C@H](Cc1c[nH]c2ccccc12)NC(=O)[C@@H]1CCCN1C(=O)[C@H](CC(C)C)NC(=O)[C@H](CCCCN)NC(=O)[C@H](Cc1c[nH]c2ccccc12)NC(=O)[C@H](C)NC(=O)[C@H](CCCNC(=N)N)NC(=O)[C@H](CCC(N)=O)NC(=O)[C@H](CCC(N)=O)NC(=O)[C@@H](N)Cc1ccc(O)cc1)C(=O)N[C@@H](CC(C)C)C(=O)N[C@@H](CCCNC(=N)N)C(=O)N[C@@H](Cc1ccccc1)C(=O)N[C@@H](CC(C)C)C(=O)N[C@@H](CCCNC(=N)N)C(=O)N[C@@H](CC(C)C)C(N)=O [QLX-3DV-18] (H-YQQRAWKLPWILRFLRL-NH2) | 8 (≈ 3.5 µM) | 8 (≈ 3.5 µM) | 32 (≈ 14 µM) | 8 (≈ 3.5 µM) | 64 (≈ 28 µM) | 8 (≈ 3.5 µM) | – | 64 (≈ 28 µM) | 16 (≈ 7 µM) | 32 (≈ 14 µM) | – | 16 (≈ 7 µM) | 16 (≈ 7 µM) | 16 (≈ 7 µM)
CC[C@H](C)[C@H](N)C(=O)N[C@@H](CCCNC(=N)N)C(=O)N1CCC[C@H]1C(=O)N[C@@H](CC(C)C)C(=O)N[C@H](C(=O)N[C@@H](CCC(N)=O)C(=O)N1CCC[C@H]1C(=O)N[C@@H](CCCNC(=N)N)C(=O)N[C@@H](Cc1ccc(O)cc1)C(=O)N[C@@H](CCCNC(=N)N)C(=O)N[C@@H](Cc1ccccc1)C(=O)N[C@@H](Cc1ccc(O)cc1)C(=O)N1CCC[C@H]1C(=O)N[C@@H](CCCNC(=N)N)C(=O)N[C@@H](CCCCN)C(=O)N[C@@H](CCCNC(=N)N)C(=O)N[C@@H](CC(C)C)C(N)=O)C(C)C [QLX-3DV-20] (H-IRPLVQPRYRFYPRKRL-NH2) | 64 (≈ 28.3 µM) | 64 (≈ 28.3 µM) | 32 (≈ 14.2 µM) | 16 (≈ 7.09 µM) | 64 (≈ 28.3 µM) | 32 (≈ 14.2 µM) | – | – | – | 64 (≈ 28.3 µM) | – | – | 16 (≈ 7.09 µM) | 16 (≈ 7.09 µM)
